In brackets after ≈: the same amount, converted by molar mass. Several values for one entry are separate records, joined by “and”; a condition that tells them apart may be missing. Equal entries are not always repeated. Where two headings read alike, the source gives them in different places.
Key:
[1] = Terminal sterilization by autoclaving, degradation of ASA; type: physicochemical; conditions: autoclaving at 121° C. for 20 mins
Method: In yet another alternative, the first component comprises an autoclaved terminally sterilized acetyl salicylic acid particulate powder. The terminally sterilized material may be obtained by autoclaving at 121° C. for 20 mins.
Alternatively, the first component was prepared by filling acetyl salicylic acid into vials and terminally sterilizing the ASA filled vials for 20 minutes at 121° C. A skilled person would not expect that a two-component system can be based on autoclaved ASA due to an expected incompatibility with heat.

[2] = Assay and purity by HPLC on non-irradiated and gamma-irradiated ASA powder; type: physicochemical; conditions: after gamma irradiation
Method: The packaged ASA was end-sterilized by 25 or 55 kGy using a Cobalt60 irradiation source. Inside the installation, samples are placed on a turn table which is turned a quarter to expose each sample from each side at equal amounts of irradiation. For each 1 kGy, the sample is irradiated for 10 min.
After gamma-irradiation, the samples were again analysed for sterility according to Ph. Eur. 2.6.1., which is harmonized with USP 71. Potential degradation was monitored by determining assay and purity by HPLC.
Salicylic acid levels were less than 0.05%.

[3] = Solution pH before and after addition of ASA to medium; type: physicochemical
Method: (§1) Prior to spray drying experiments, the solution pH of different solvents and the saturation solubility of ASA in different solvents was screened. The acidified mediums were prepared as follows:
(§2) 8.5 ml of hydrochloric acid (about 35% v/v) was transferred into 900 ml of water and diluted to 1000 ml with water. 10.0 ml of this solution was diluted to 1000 ml with water. The pH of the solution was noted.
(§3) 8.5 ml of hydrochloric acid (about 35% v/v) was transferred into 900 mL 96% ethanol and diluted to 1000 ml with water. 10.0 ml of this solution was diluted to 1000 ml with 96% ethanol. The pH of the solution was noted.
(§4) 8.5 ml of hydrochloric acid (about 35% v/v) was transferred into 900 mL Tertiary butyl alcohol and diluted to 1000 ml with Tertiary butyl alcohol. 10.0 ml of this solution was diluted to 1000 ml with 96% Tertiary butyl alcohol. The pH of the solution was noted.
(§5) 8.5 ml of hydrochloric acid (about 35% v/v) was transferred into 900 ml water and diluted to 1000 ml with water. 10.0 ml of this solution was diluted to 1000 ml with water. […] The pH of the solution was noted.
(§6) ASA has more solubility in non-aqueous media compared to aqueous media and ASA dissolves better in ethanol compared to tertiary butyl alcohol however it also has higher salicylic acid content (Tables 6 and 7). Once it is acidified the salicylic acid levels are lowered.

[4] = Saturated solubility of ASA after 1 hour shaking in a medium selection; type: physicochemical; conditions: for solubility thermodynamic at 1 h: thermodynamic from solid, read-out: Individual concentration at saturation (Cs), Aspirin (A)
Method: as §1, §2, §3, §4, §5, §6

[5] = Reconstitution testing of ASA in buffer diluents; type: physicochemical; conditions: gamma irradiated ASA
Method: The material produced in the radiation and spray drying experiments was tested in reconstitution studies and compared to non-sterile, crystalline acetyl salicylic acid.
The buffer systems were tested for reconstitution of 325.0 mg gamma irradiated acetyl salicylic acid powder in 5 or 10 ml reconstitution fluid. Different buffer strengths were screened. […]

[6] = cited from earlier work
[7] = buffer —, purified water Ad 10 g, 10 mL

SMILES: CC(=O)Oc1ccccc1C(=O)O [ASA, Acetyl salicylic acid]
- degradation of acetyl salicylic acid [1]: no degradation
- Salicylic acid levels [2]: less than 0.05%
- impurities identified [2]: no impurities were identified
- pH 48 hours after addition of ASA ([3]; 96% Ethanol, no prior pH adjustment (pH 7.06 before)): 3.09
- pH 48 hours after addition of ASA ([3]; Acidified 96% ethanol (pH 2.30 before)): 2.24
- pH 48 hours after addition of ASA ([3]; Acidified tert-butyl alcohol (pH 2.01 before)): 1.93
- pH 48 hours after addition of ASA ([3]; Acidified water (0.001N HCl) (pH 2.47 before)): 2.37
- pH 48 hours after addition of ASA ([3]; Acidified water + 60 g/L mannitol (pH 2.50 before)): 2.36
- pH 48 hours after addition of ASA ([3]; Milli-Q Water, no prior pH adjustment (pH 5.41 before)): 2.62
- pH 48 hours after addition of ASA ([3]; Tert-butyl alcohol, no prior pH adjustment (pH 4.89 before)): 3.40
- pH 48 hours after addition of ASA ([3]; Water + 60 g/L mannitol, no prior pH adjustment (pH 6.03 before)): 2.61
- solubility thermodynamic at 1 h ([4]; 60 g/L mannitol solution, saline or isotonic, 60 g/L mannitol, without pH adjustment): 3090 µg/mL (≈ 17.2 mM)
- Individual concentration at saturation (Cs), Aspirin (A) ([4]; 60 g/L mannitol, without pH adjustment): 2.868 mg/mL and 2.484 mg/mL
- Cs (mean) ([4]; Acidified 60 g/L mannitol): 1.787 mg/mL
- Cs (mean) ([4]; Acidified ethanol): 142.678 mg/mL
- Individual concentration at saturation (Cs), Aspirin (A) ([4]; Acidified ethanol): 143.526 mg/mL and 142.299 mg/mL and 141.593 mg/mL
- Individual concentration at saturation (Cs), Aspirin (A) ([4]; Acidified tert-butyl alcohol): 48.73 mg/mL and 48.156 mg/mL and 48.453 mg/mL
- Individual concentration at saturation (Cs), Aspirin (A) ([4]; Acidified water): 1.924 mg/mL and 1.912 mg/mL
- Individual concentration at saturation (Cs), Aspirin (A) ([4]; Ethanol, without pH adjustment): 158.430 mg/mL and 163.027 mg/mL and 160.432 mg/mL
- Individual concentration at saturation (Cs), Aspirin (A) ([4]; Tert-butyl alcohol, without pH adjustment): 22.768 mg/mL and 23.150 mg/mL and 22.889 mg/mL
- Individual concentration at saturation (Cs), Aspirin (A) ([4]; Water, without pH adjustment): 3.429 mg/mL and 3.423 mg/mL
- solubility thermodynamic at 1 h ([4]; acidified 60 g/L mannitol solution, saline or isotonic, Acidified 60 g/L mannitol): 1780 µg/mL (≈ 9.85 mM)
- solubility thermodynamic at 1 h ([4]; acidified water, aqueous buffer, Acidified water): 1890 µg/mL (≈ 10.5 mM)
- solubility thermodynamic at 1 h ([4]; water, Water, without pH adjustment): 3090 µg/mL (≈ 17.2 mM)
- pH after reconstitution ([5]; Carbonate - NaOH 0.15M): 6.254
- 325 mg ASA dissolves? ([5]; Carbonate - NaOH 0.2M, 10 mL): YES -
- pH after reconstitution ([5]; Carbonate - NaOH 0.2M, 10 mL): 9.160
- 325 mg ASA dissolves? ([5]; Carbonate - NaOH 0.25, 10 mL): YES -
- pH after reconstitution ([5]; Carbonate - NaOH 0.25, 10 mL): 9.646
- Time needed to dissolve (±) ([5]; Carbonate - NaOH 0.25, 10 mL, (3 min) + <1 min): <1 min
- 325 mg ASA dissolves? ([5]; Carbonate - NaOH 0.5M, 5 mL): YES -
- Time needed to dissolve (±) ([5]; Carbonate - NaOH 0.5M, 5 mL): 3 min
- pH after reconstitution ([5]; Carbonate - NaOH 0.5M, 5 mL): 7.534
- 325 mg ASA dissolves? ([5]; Carbonate - NaOH 1M, 5 mL): YES -
- Time needed to dissolve (±) ([5]; Carbonate - NaOH 1M, 5 mL): <3 min
- pH after reconstitution ([5]; Carbonate - NaOH 1M, 5 mL): 9.308
- 325 mg ASA dissolves? If yes, in 5 or 10 mL? ([5]; Carbonate-NaOH 0.025M, Ad 10 g): YES - 5 mL
- Time needed to dissolve (±) ([5]; Carbonate-NaOH 0.025M, 5 mL): 0.5 min
- pH after reconstitution ([5]; Carbonate-NaOH 0.025M, 5 mL): 9.233
- pH after reconstitution ([5]; NaOH 0.1M): 4.199
- 325 mg ASA dissolves? If yes, in 5 or 10 mL? ([5]; NaOH 0.25M): YES - 10 mL
- pH after reconstitution ([5]; NaOH 0.25M, 10 mL): 7.099
- Time needed to dissolve (±) ([5]; NaOH 0.25M, 10 mL, (3 min) + <1 min): <1 min
- 325 mg ASA dissolves? If yes, in 5 or 10 mL? ([5]; NaOH 0.3M): YES - 10 mL
- Time needed to dissolve (±) ([5]; NaOH 0.3M, 10 mL, printed as (3 min) + 1 min): 1 min
- 325 mg ASA dissolves? If yes, in 5 or 10 mL? ([5]; NaOH 0.4M): YES - 10 mL
- pH after reconstitution ([5]; NaOH 0.4M, 10 mL): 12.103
- Time needed to dissolve (±) ([5]; NaOH 0.4M, 10 mL, (3 min) + <1 min): <1 min
- 325 mg ASA dissolves? If yes, in 5 or 10 mL? ([5]; NaOH 0.5M): YES - 5 mL
- Time needed to dissolve (±) ([5]; NaOH 0.5M, 5 mL): <1 min
- pH after reconstitution ([5]; NaOH 0.5M, 5 mL): 7.229
- 325 mg ASA dissolves? If yes, in 5 or 10 mL? ([5]; NaOH 1M): YES - 5 mL
- Time needed to dissolve (±) ([5]; NaOH 1M, 5 mL): <0.25 min
- pH after reconstitution ([5]; NaOH 1M, 5 mL): 12.814
- 325 mg ASA dissolves? ([5]; TBST 1M, pH of medium 7.574, 10 mL): YES -
- Time needed to dissolve (±) ([5]; TBST 1M, 10 mL): 15 min
- pH after reconstitution ([5]; TBST 1M, 10 mL): 7.100
- Time needed to dissolve (±) ([5]; Tris 0.025M, Ad 10 g, volume as in the dissolves column of the same line): <1 min and 2 min
- pH after reconstitution ([5]; Tris 0.1M): 4.195
- 325 mg ASA dissolves? ([5]; Tris 0.25M, pH of medium 10.701, 10 mL): YES -
- pH after reconstitution ([5]; Tris 0.25M, 10 mL): 7.616
- 325 mg ASA dissolves? ([5]; Tris 0.5M, pH of medium 10.814, 5 mL): YES -
- Time needed to dissolve (±) ([5]; Tris 0.5M, 5 mL): 3 min
- pH after reconstitution ([5]; Tris 0.5M, 5 mL): 7.592
- 325 mg ASA dissolves? ([5]; Tris 1M, pH of medium 11.047, 5 mL): YES -
- Time needed to dissolve (±) ([5]; Tris 1M, 5 mL): 3 min
- pH after reconstitution ([5]; Tris 1M, 5 mL): 8.550
- 325 mg ASA dissolves? If yes, in 5 or 10 mL? ([5]; buffer — , strength —, purified water Ad 10 g): Yes - 10 mL
- Time needed to dissolve (±) [5, 7]: 30 min
- pH after reconstitution [5, 7]: 8.125
- solubility ([6]; above pH 5.5): above 100 mg/ml
- solubility in water ([6]; water): about 0.3%

Source: patent publication US12357644B2, “Acetyl salicylic acid composition for intravenous administration, its storage, production and use” (HYLORIS DEVELOPMENTS SA, priority 2022, dated 2025)
